Experimental data reported in patent US10987359B2, “Oxadiazepinone derivatives and methods of treating hepatitis B infections” (priority 2016, dated 2021).
Where two headings read alike, the source gives them in different places.

Test system: HBV
Test: HBV replication inhibition assay (BDNA assay) in HepG2.2.15 cells
Type: cell-based
Conditions: HepG2.2.15 cells, read-out: DNA EC50
Method: HBV replication inhibition by the disclosed compounds were determined in cells infected or transfected with HBV or cells with stably integrated HBV, such as HepG2.2.15 cells (Sells et al. 1987). In this example, HepG2.2.15 cells were maintained in cell culture medium containing 10% fetal bovine serum (FBS), Geneticin, L-glutamine, penicillin and streptomycin. HepG2.2.15 cells were seeded in 96-well plates at a density of 40,000 cells/well and were treated with serially diluted compounds at a final DMSO concentration of 0.5% either alone or in combination by adding drugs in a checker box format. Cells were incubated with compounds for three days, after which medium was removed and fresh medium containing compounds was added to cells and incubated for another three days. At day 6, supernatant was removed and treated with DNase at 37° C. for 60 minutes, followed by enzyme inactivation at 75° C. for 15 minutes. Encapsidated HBV DNA was released from the virions and covalently linked HBV polymerase by incubating in lysis buffer (Affymetrix QS0010) containing 2.5 μg proteinase K at 50° C. for 40 minutes. HBV DNA was denatured by addition of 0.2 M NaOH and detected using a branched DNA (BDNA) QuantiGene assay kit according to manufacturer recommendation (Affymetrix). HBV DNA levels were also quantified using qPCR, based on amplification of encapsidated HBV DNA extraction with QuickExtraction Solution (Epicentre Biotechnologies) and amplification of HBV DNA using HBV specific PCR probes that can hybridize to HBV DNA and a fluorescently labeled probe for quantitation. In addition, cell viability of HepG2.2.15 cells incubated with test compounds alone or in combination was determined by using CellTitre-Glo reagent according to the manufacturer protocol (Promega). The mean background signal from wells containing only culture medium was subtracted from all other samples, and percent inhibition at each compound concentration was calculated by normalizing to signals from HepG2.2.15 cells treated with 0.5% DMSO using equation E1. % inhibition=(DMSOave−Xi)/DMSOave×100% E1: […]
where DMSOave is the mean signal calculated from the wells that were treated with DMSO control (0% inhibition control) and Xi is the signal measured from the individual wells. EC50 values, effective concentrations that achieved 50% inhibitory effect, were determined by non-linear fitting using Graphpad Prism software (San Diego, Calif.) and equation E2: Y=Y min+(Y max−Y min)/(1+10(Log EC50−X)×HillSlope) E2: […]
where Y represents percent inhibition values and X represents the logarithm of compound concentrations.
Selected disclosed compounds were assayed in the HBV replication assay (BDNA assay), as described above, and a representative group of these active compounds is shown in Table 7. […] In Table 7, “A” represents 1<EC50≤100; “B” represents 100<EC50≤500; “C” represents 500<EC50≤1000; and “D” represents EC50>1000.

[1] = Hepatitis B virus, HepG2.2.15, HBV replication assay (BDNA assay)
[2] = HBV replication assay (BDNA assay)

SMILES	EC50 [1]	EC50 [2]
CN1OC(CF)Cn2nc3c(c2C1=O)CN(C(=O)Nc1cc(F)c(F)c(Cl)c1)CC3 (single isomer, unassigned) [Compound 044_E1, (S*)—N-(3-chloro-4,5-difluorophenyl)-4-(fluoromethyl)-2-methyl-1-oxo-1,4,5,8,9,11-hexahydropyrido[4′,3′:3,4]pyrazolo[5,1-d][1,2,5]oxadiazepine-10(2H)-carboxamide]	1 to 100 nM	
CCN1OC(CO)Cn2nc3c(c2C1=O)CN(C(=O)Nc1ccc(F)c(Cl)c1)CC3 (single isomer, unassigned) [Compound 060_E1, (S*)—N-(3-chloro-4-fluorophenyl)-2-ethyl-4-(hydroxymethyl)-1-oxo-1,4,5,8,9,11-hexahydropyrido[4′,3′:3,4]pyrazolo[5,1-d][1,2,5]oxadiazepine-10(2H)-carboxamide]	1 to 100 nM	
CCN1OC(CO)Cn2nc3c(c2C1=O)CN(C(=O)Nc1ccc(F)c(Cl)c1)CC3 (single isomer, unassigned) [Compound 060_E2, (R*)—N-(3-chloro-4-fluorophenyl)-2-ethyl-4-(hydroxymethyl)-1-oxo-1,4,5,8,9,11-hexahydropyrido[4′,3′:3,4]pyrazolo[5,1-d][1,2,5]oxadiazepine-10(2H)-carboxamide]		1 to 100 nM
Cc1cc(NC(=O)N2Cc3c(nn4c3C(=O)N(C)OC(CO)C4)C[C@H]2C)ccc1F (single isomer, unassigned) [Compound 083_E1, (4S*,9R)—N-(4-fluoro-3-methylphenyl)-4-(hydroxymethyl)-2,9-dimethyl-1-oxo-1,4,5,8,9,11-hexahydropyrido[4′,3′:3,4]pyrazolo[5,1-d][1,2,5]oxadiazepine-10(2H)-carboxamide]	1 to 100 nM	
Cc1cc(NC(=O)N2Cc3c(nn4c3C(=O)N(C)OC(CO)C4)C[C@H]2C)ccc1F (single isomer, unassigned) [Compound 083_E2, (4R*,9R)—N-(4-fluoro-3-methylphenyl)-4-(hydroxymethyl)-2,9-dimethyl-1-oxo-1,4,5,8,9,11-hexahydropyrido[4′,3′:3,4]pyrazolo [5,1-d][1,2,5]oxadiazepine-10(2H)-carboxamide]		1 to 100 nM
C[C@@H]1Cc2nn3c(c2CN1C(=O)Nc1ccc(F)c(Cl)c1)C(=O)N(C)OC(CF)C3 (single isomer, unassigned) [Compound 088_E1, (4S*,9R)—N-(3-chloro-4-fluorophenyl)-4-(fluoromethyl)-2,9-dimethyl-1-oxo-1,4,5,8,9,11-hexahydropyrido[4′,3′:3,4]pyrazolo[5,1-d][1,2,5]oxadiazepine-10(2H)-carboxamide]	1 to 100 nM	
C[C@@H]1Cc2nn3c(c2CN1C(=O)Nc1ccc(F)c(Cl)c1)C(=O)N(C)OC(CF)C3 (single isomer, unassigned) [Compound 088_E2, (4R*,9R)—N-(3-chloro-4-fluorophenyl)-4-(fluoromethyl)-2,9-dimethyl-1-oxo-1,4,5,8,9,11-hexahydropyrido[4′,3′:3,4]pyrazolo[5,1-d][1,2,5]oxadiazepine-10(2H)-carboxamide]		1 to 100 nM
C[C@@H]1Cc2nn3c(c2CN1C(=O)Nc1ccc(F)c(Br)c1F)C(=O)N(C)OC(CO)C3 (single isomer, unassigned) [Compound 092_E1, (4S*,9R)—N-(3-bromo-2,4-difluorophenyl)-4-(hydroxymethyl)-2,9-dimethyl-1-oxo-1,4,5,8,9,11-hexahydropyrido[4′,3′:3,4]pyrazolo[5,1-d][1,2,5]oxadiazepine-10(2H)-carboxamide]	1 to 100 nM	
C[C@@H]1Cc2nn3c(c2CN1C(=O)Nc1ccc(F)c(Br)c1F)C(=O)N(C)OC(CO)C3 (single isomer, unassigned) [Compound 092_E2, (4R*,9R)—N-(3-bromo-2,4-difluorophenyl)-4-(hydroxymethyl)-2,9-dimethyl-1-oxo-1,4,5,8,9,11-hexahydropyrido[4′,3′:3,4]pyrazolo[5,1-d][1,2,5]oxadiazepine-10(2H)-carboxamide]		1 to 100 nM
C[C@@H]1Cc2nn3c(c2CN1C(=O)Nc1ccc(F)c(Cl)c1)C(=O)N(C)OC(CN(C)C)C3 (single isomer, unassigned) [Compound 093_D1, (4S*,9R)—N-(3-chloro-4-fluorophenyl)-4-((dimethylamino)methyl)-2,9-dimethyl-1-oxo-1,4,5,8,9,11-hexahydropyrido[4′,3′:3,4]pyrazolo[5,1-d][1,2,5]oxadiazepine-10(2H)-carboxamide]	1 to 100 nM	
C[C@@H]1Cc2nn3c(c2CN1C(=O)Nc1cc(Br)c(F)cc1F)C(=O)N(C)OC(COCC(F)F)C3 (single isomer, unassigned) [Compound 108_D1, (4S*,9R)—N-(5-bromo-2,4-difluorophenyl)-4-((2,2-difluoroethoxy)methyl)-2,9-dimethyl-1-oxo-1,4,5,8,9,11-hexahydropyrido[4′,3′:3,4]pyrazolo[5,1-d][1,2,5]oxadiazepine-10(2H)-carboxamide]		100 to 500 nM
C[C@@H]1Cc2nn3c(c2CN1C(=O)Nc1cc(Br)c(F)cc1F)C(=O)N(C)OC(COCC(F)F)C3 (single isomer, unassigned) [Compound 108_D2, (4R*,9R)—N-(5-bromo-2,4-difluorophenyl)-4-((2,2-difluoroethoxy)methyl)-2,9-dimethyl-1-oxo-1,4,5,8,9,11-hexahydropyrido[4′,3′:3,4]pyrazolo[5,1-d][1,2,5]oxadiazepine-10(2H)-carboxamide]		1 to 100 nM
CNC(=O)C1Cn2nc3c(c2C(=O)N(C)O1)CN(C(=O)Nc1ccc(F)c(Cl)c1F)[C@H](C)C3 (single isomer, unassigned) [Compound 110_D1, (4S*,9R)—N10-(3-chloro-2,4-difluorophenyl)-N4,2,9-trimethyl-1-oxo-1,4,5,8,9,11-hexahydropyrido[4′,3′:3,4]pyrazolo[5,1-d][1,2,5]oxadiazepine-4,10(2H)-dicarboxamide]		500 to 1000 nM
CNC(=O)C1Cn2nc3c(c2C(=O)N(C)O1)CN(C(=O)Nc1ccc(F)c(Cl)c1F)[C@H](C)C3 (single isomer, unassigned) [Compound 110_D2, (4R*,9R)—N10-(3-chloro-2,4-difluorophenyl)-N4,2,9-trimethyl-1-oxo-1,4,5,8,9,11-hexahydropyrido[4′,3′:3,4]pyrazolo[5,1-d][1,2,5]oxadiazepine-4,10(2H)-dicarboxamide]		1 to 100 nM
C[C@@H]1Cc2nn3c(c2CN1C(=O)Nc1ccc(F)c(C#N)c1)C(=O)N(C)OC(CN)C3 (single isomer, unassigned) [Compound 115_D1, (4S*,9R)-4-(aminomethyl)-N-(3-cyano-4-fluorophenyl)-2,9-dimethyl-1-oxo-1,4,5,8,9,11-hexahydropyrido[4′,3′:3,4]pyrazolo[5,1-d][1,2,5]oxadiazepine-10(2H)-carboxamide]	1 to 100 nM	
C[C@@H]1Cc2nn3c(c2CN1C(=O)Nc1ccc(F)c(Cl)c1)C(=O)N(C)OC(COCC(F)F)C3 (single isomer, unassigned) [Compound 121_D1, (4S*,9R)—N-(3-chloro-4-fluorophenyl)-4-((2,2-difluoroethoxy)methyl)-2,9-dimethyl-1-oxo-1,4,5,8,9,11-hexahydropyrido[4′,3′:3,4]pyrazolo[5,1-d][1,2,5]oxadiazepine-10(2H)-carboxamide]	1 to 100 nM	
CN1OC(CO)Cn2nc3c(c2C1=O)CN(C(=O)Nc1cc(F)c(F)c(Cl)c1F)CC3 (single isomer, unassigned) [Compound 137_E1, (S*)—N-(3-chloro-2,4,5-trifluorophenyl)-4-(hydroxymethyl)-2-methyl-1-oxo-1,4,5,8,9,11-hexahydropyrido[4′,3′:3,4]pyrazolo[5,1-d][1,2,5]oxadiazepine-10(2H)-carboxamide]	1 to 100 nM	
CN1OC(CO)Cn2nc3c(c2C1=O)CN(C(=O)Nc1c(F)ccc(Cl)c1F)CC3 (single isomer, unassigned) [Compound 138_E1, (S*)—N-(3-chloro-2,6-difluorophenyl)-4-(hydroxymethyl)-2-methyl-1-oxo-1,4,5,8,9,11-hexahydropyrido[4′,3′:3,4]pyrazolo[5,1-d][1,2,5]oxadiazepine-10(2H)-carboxamide]	100 to 500 nM	
CN1OC(CO)Cn2nc3c(c2C1=O)CN(C(=O)Nc1cc(Cl)ccc1F)CC3 (single isomer, unassigned) [Compound 139_E1, (S*)—N-(5-chloro-2-fluorophenyl)-4-(hydroxymethyl)-2-methyl-1-oxo-1,4,5,8,9,11-hexahydropyrido[4′,3′:3,4]pyrazolo[5,1-d][1,2,5]oxadiazepine-10(2H)-carboxamide]	1 to 100 nM	
